Laboratory results taken from ChEMBL document CHEMBL3877286, “Green fluorescent protein chromophore derivatives as a new class of aldose reductase inhibitors” (Eur J Med Chem, 2017).

target: T1, Aldo-keto reductase family 1 member B1 (Homo sapiens, UniProt P15121); assay: Inhibition of recombinant human ALR2 assessed as reduction in NADPH oxidation at 13 uM measured for 5 mins in presence of D,L-glyceraldehyde by spectrophotometric method relative to control

SMILES | inhibition [%]
CCOC(=O)CN1C(=O)/C(=C/c2ccc(Cl)cc2)N=C1C | 16

target: T1, Aldo-keto reductase family 1 member B1; assay: Potency index, ratio of sorbinil IC50 to compound IC50 for recombinant human ALR2

SMILES | Ratio IC50
CC1=N/C(=C\c2ccc(O)cc2)C(=O)N1CC(=O)O | 6

target: T1, Aldo-keto reductase family 1 member B1; assay: Inhibition of recombinant human ALR2 assessed as reduction in NADPH oxidation measured for 5 mins in presence of D,L-glyceraldehyde by spectrophotometric method

SMILES | IC50 [nM]
COc1ccc(/C=C2\N=C(C)N(CC(=O)O)C2=O)cc1 | 510
CC1=N/C(=C\c2ccc(OCC(=O)O)cc2)C(=O)N1CC(=O)O | 310
CC1=N/C(=C\c2ccc(Cl)cc2)C(=O)N1CC(=O)O | 270
CC1=N/C(=C\c2ccc(F)cc2)C(=O)N1CC(=O)O | 650
CC1=N/C(=C\c2ccc(Br)cc2)C(=O)N1CC(=O)O | 240
CCOC(=O)COc1ccc(/C=C2\N=C(C)N(CC(=O)OCC)C2=O)cc1 | 109000
CC1=N/C(=C\c2ccc(O)cc2)C(=O)N1CC(=O)O | 360
CC1=N/C(=C\c2cc(C)c(O)c(C)c2)C(=O)N1CC(=O)O | 130
CC1=N/C(=C\c2ccc3ccccc3c2)C(=O)N1CC(=O)O | 100
CC1=N/C(=C\c2ccc(O)cc2)C(=O)N1CCC(=O)O | 10700
CC1=N/C(=C\c2ccccc2)C(=O)N1CC(=O)O | 580
CC1=N/C(=C\c2cccc(O)c2)C(=O)N1CC(=O)O | 3200
CCOC(=O)CN1C(=O)/C(=C/c2ccc(O)cc2)N=C1C | 23000
CCOC(=O)CN1C(=O)/C(=C/c2ccccc2)N=C1C | 112000
CC1=N/C(=C\c2cccc3ccccc23)C(=O)N1CC(=O)O | 540
